Source: patent US20260034112A1, “MULTI-CYCLIC IRAK1 AND IRAK4 INHIBITING COMPOUNDS AND USES THEREOF” (CHILDREN'S HOSPITAL MEDICAL CENTER, priority 2022, published 2026)
Converted amounts (≈) assume the structure as drawn. “And” between values parts separate entries of the source, which are not always exact repeats. Identical values can stand only once. Like-named read-outs stand apart in the source and are kept apart here.

Columns and labels:
[1] = system: MDS/AML cell lines and patient-derived samples; test: Clonogenic assay (colony formation in methylcellulose); format: cell-based, human; details: for Colony formation after in vitro exposure: AML(1714) cells, 500 nM for 21 days, then 250 live cells plated, 10 days
[2] = system: NF-kB activity upon IL-1β stimulation (IL-1R) in THP1 NF-kB reporter cells; test: THP1 NF-kB reporter assay, IL-1β stimulation; format: cell-based, human; details: for Suppression of NF-kB signaling through the IL-1 receptor: result in words
[3] = system: NF-kB activity upon TLR2 stimulation with PAM3CSK4 in THP1-Blue NF-kB SEAP reporter cells; test: THP1-Blue NF-kB SEAP reporter assay, TLR2 stimulation with PAM3CSK4; format: cell-based, human; details: for Suppression of TLR2-mediated activation of NF-kB: THP1 cells
[4] = target: T1, IRAK4 (Homo sapiens, UniProt Q9NWZ3); test: Reaction Biology Kinase Assay service, kinase inhibition (IC50); format: biochemical
T1 construct: purchased Reaction Biology (contract assay service)
T1 sequence (Q9NWZ3 1-460): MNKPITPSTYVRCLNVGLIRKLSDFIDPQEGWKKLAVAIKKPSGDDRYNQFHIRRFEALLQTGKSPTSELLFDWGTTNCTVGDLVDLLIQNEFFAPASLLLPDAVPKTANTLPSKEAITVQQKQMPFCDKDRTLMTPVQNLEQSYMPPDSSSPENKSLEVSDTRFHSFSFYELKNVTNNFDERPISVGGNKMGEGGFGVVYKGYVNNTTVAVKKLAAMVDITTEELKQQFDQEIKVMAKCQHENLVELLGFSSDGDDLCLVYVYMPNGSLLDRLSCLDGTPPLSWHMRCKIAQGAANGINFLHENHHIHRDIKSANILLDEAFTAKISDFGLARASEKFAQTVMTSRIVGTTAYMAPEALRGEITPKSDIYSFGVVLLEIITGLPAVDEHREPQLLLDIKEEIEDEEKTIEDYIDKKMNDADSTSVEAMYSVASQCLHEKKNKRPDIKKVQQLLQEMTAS

[5] = Survival in xenograft mice versus emavusertib and gilteritinib (FIG. 28); details: compared to emavusertib (CA-4948) and gilteritinib
[6] = target: T2, IRAK1 (Homo sapiens, UniProt P51617); test: Reaction Biology Kinase Assay service, kinase inhibition (IC50); format: biochemical; details: for IRAK4:IRAK1 potency ratio: calculated from the IRAK1 and IRAK4 IC50
T2 construct: purchased Reaction Biology (contract assay service)

[7] = system: THP1 cells; format: cell-based, human; details: AML cells versus vehicle
[8] = target: T1, IRAK4; test: DiscoverX KINOMEscan Profiling Service, dissociation constant; format: binding
[9] = target: T2, IRAK1; test: as above; format: binding
[10] = PAMPA; format: in vitro ADME
[11] = system: AML(64519), AML(0169), and MDS(76960) cells; test: Patient-derived AML/MDS xenografts treated orally; format: in vivo, NSGS mice; details: PO daily, Compound 14 30 mg/kg or Compound 15 100 mg/kg; for Median survival: NSGS mice engrafted with AML(0169), vehicle 29 days; for Leukemic cell engraftment in the PB: AML(64519), AML(0169), MDS(76960) at day 40, 29, 48, versus vehicle
[12] = Plasma protein binding, human; format: in vitro ADME
[13] = Solubility; format: physicochemical
[14] = system: AML(1714) cells; test: Xenograft of AML(1714) cells pre-treated in vitro for 21 days; format: in vivo; details: AML(1714) pre-treated 500 nM 21 days, xenografted NSGS mice
[15] = Microsomal stability (Mic t½), mouse; format: in vitro ADME
[16] = system: IRAK1 phosphorylation in MDS/AML cells; test: Immunoblotting for phospho-IRAK1; format: cell-based, human; details: THP1 and MDSL cells, 500 nM, 24 hours
[17] = Pharmacokinetic analysis, drug concentration after PO dosing
[18] = Plasma protein binding, mouse; format: in vitro ADME
[19] = Microsomal stability (Mic t½), rat; format: in vitro ADME
[20] = Microsomal stability (Mic t½), human; format: in vitro ADME
[21] = system: MDS/AML cell lines and patient-derived samples; test: Differentiation: Wright-Giemsa stains and CD38 immunophenotyping; format: cell-based, human
[22] = system: healthy donor CD34+ cells; test: Myeloid and erythroid colony formation of healthy donor cells; format: cell-based, human; details: same concentrations as in the leukemic colony assay
[23] = system: MDSL, THP1, OCIAML3, AML(1714), and AML(1294) cells; test: Annexin V staining (apoptosis); format: cell-based, human; details: 500 nM, 48 hours
[24] = THP1 NF-kB reporter cells, read-out: IC50 vs. IL-1β (NF-kB activation)
[25] = functional biochemical assay, read-out: IRAK4 IC50
[26] = functional biochemical assay, read-out: IRAK1 IC50

T2 sequence (P51617 whole entry): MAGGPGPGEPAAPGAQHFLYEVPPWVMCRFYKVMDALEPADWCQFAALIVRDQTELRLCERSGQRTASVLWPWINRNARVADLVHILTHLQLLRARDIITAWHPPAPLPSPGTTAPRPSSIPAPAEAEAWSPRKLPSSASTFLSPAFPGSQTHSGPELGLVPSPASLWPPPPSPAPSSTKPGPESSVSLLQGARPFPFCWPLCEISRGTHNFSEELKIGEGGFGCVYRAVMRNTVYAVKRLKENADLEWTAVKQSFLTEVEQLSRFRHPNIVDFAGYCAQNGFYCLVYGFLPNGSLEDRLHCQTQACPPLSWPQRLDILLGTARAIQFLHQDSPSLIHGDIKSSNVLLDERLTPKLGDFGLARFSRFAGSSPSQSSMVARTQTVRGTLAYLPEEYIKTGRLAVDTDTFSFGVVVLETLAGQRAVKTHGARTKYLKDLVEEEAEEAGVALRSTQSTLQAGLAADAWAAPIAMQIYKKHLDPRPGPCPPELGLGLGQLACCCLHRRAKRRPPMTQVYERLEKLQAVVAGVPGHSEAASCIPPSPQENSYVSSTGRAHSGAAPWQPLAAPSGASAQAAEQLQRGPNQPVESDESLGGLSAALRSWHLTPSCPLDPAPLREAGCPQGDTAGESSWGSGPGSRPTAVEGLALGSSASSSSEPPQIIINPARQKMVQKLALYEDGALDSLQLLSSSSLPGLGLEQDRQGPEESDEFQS

In the case of `CC(=O)c1cc2c(o1)C(=O)c1ccccc1C2=O` [BB1608], the “Colony formation of knockout THP1 cells with STAT inhibitor” value ([1]; IRAK4KO versus IRAK1KO, MyD88KO or WT THP1 cells, 500 nM) is reported as “sensitive”.
In the case of `COc1cc2ncc(-c3nc(N[C@@H]4CCCNC4)c(F)cc3F)n2nc1C1CC1` [Compound 8], the IC50 ([2]; Homo sapiens, THP-1, Table 1, unit nM, read-out: THP-1 NFkB IL1B IC50) is reported as 58.7 nM, the “LOG (IL1B)” value ([2]; Table 1, log of IL1B IC50) is reported as 1.77 and the IC50 ([3]; Homo sapiens, THP-1, Table 1, unit nM, read-out: THP-1 NFkB PAM IC50) is reported as 62.9 nM. For the same compound, the “LOG (PAM)” value ([3]; Table 1, log of PAM IC50) was 1.80, the “LOG (IRAK4)” value ([4]; Table 1, log of IRAK4 IC50) was 0.19 and the IC50 ([4]; Table 1, unit nM, read-out: Reaction Bio IRAK4 IC50) was 1.54 nM. For the same compound, the “Survival in xenograft mice” value [5] was “enhanced survival”, the “LOG (IRAK1)” value ([6]; Table 1, log of IRAK1 IC50) was 1.43 and the IC50 ([6]; Table 1, unit nM, read-out: Reaction Bio IRAK1 IC50) was 27.2 nM.
With `COc1ccc2ncc(-c3cccc(N[C@@H]4CCCNC4)n3)n2c1` [Compound 14] the “Colony formation after in vitro exposure” value [1] was “only partially suppressed”, the “Reduction in leukemia progenitor cell colony formation” value (from here on “Reduction”) ([1]; MDS/AML cell lines, 250 nM or 1 μM) was 60-75% and the “Reduction” value ([1]; all MDS/AML cell lines and patient-derived samples, 250 nM or 1 μM) was “approximately 75%”. The “Reduction” value ([1]; patient-derived AML samples, 250 nM or 1 μM) was 80-85%, the IC50 [2, 24] was 227 nM and the “Suppression of NF-kB signaling through the IL-1 receptor” value ([2]; THP1 NF-kB reporter cells) was “completely suppress”. For the same compound, the “Effect on genes of the IRAK1/4 AML signature” value [7] was “unremarkable effect”, the Kd [8] was 5 nM and the Kd [9] was 150 nM. For the same compound, the PAMPA [10] was 746 10^−6 cm/s, the “Suppression of TLR2-mediated activation of NF-kB” value ([3]; at 5 μM) was about 80% and the IC50 [4, 25] was 5 nM. The Median survival [11] was 33 days, the “Leukemic cell engraftment in the PB” value [11] was “did not significantly suppress” and the “Plasma Prot Bind (% free - h)” value [12] was 26.5 % free. For the same compound, the Solubility [13] was over 48 mg/mL, the “Leukemic engraftment and AML development of pre-treated cells” value [14] was “only partially suppressed” and the “IRAK4:IRAK1 potency ratio” value [6] was 100. The IC50 [6, 26] was over 500 nM, the “Tier 2 Mic t½ (m)” value [15] was “N.D./25/N.D. min” and the “Phosphorylation of IRAK1” value [16] was “did not affect phosphorylation of IRAK1”. For the same compound, the “Mean Free Drug Concentration” value ([17]; PO 30 mg/kg, 0.25 h) was 336 nM, the “Mean Total Drug Concentration” value ([17]; PO 30 mg/kg, 0.25 h) was 869 nM and the “Mean Free Drug Concentration” value ([17]; PO 30 mg/kg, 0.5 h) was 360 nM. The “Mean Total Drug Concentration” value ([17]; PO 30 mg/kg, 0.5 h) was 932 nM, the “Mean Free Drug Concentration” value ([17]; PO 30 mg/kg, 1 h) was 309 nM and the “Mean Total Drug Concentration” value ([17]; PO 30 mg/kg, 1 h) was 801 nM. For the same compound, the “Mean Free Drug Concentration” value ([17]; PO 30 mg/kg, 2 h) was 217 nM, the “Mean Total Drug Concentration” value ([17]; PO 30 mg/kg, 2 h) was 562 nM and the “Mean Free Drug Concentration” value ([17]; PO 30 mg/kg, 4 h) was 101 nM. The “Mean Total Drug Concentration” value ([17]; PO 30 mg/kg, 4 h) was 262 nM, the “Mean Free Drug Concentration” value ([17]; PO 30 mg/kg, 8 h) was 30 nM and the “Mean Total Drug Concentration” value ([17]; PO 30 mg/kg, 8 h) was 78 nM. For the same compound, the “Mean Free Drug Concentration” value ([17]; PO 30 mg/kg, 24 h) was 0 nM, the “Mean Total Drug Concentration” value ([17]; PO 30 mg/kg, 24 h) was 0 nM and the “Plasma Prot Bind (% free - ms)” value [18] was 38.6 % free. For the same compound, the “Tier 1 Mic t½ (r)” value [19] was over 30 min.
With `CC1(c2ccc3ncc(-c4cccc(N[C@@H]5CCNC5)n4)n3c2)CC1` [Compound 15] the “Colony formation after in vitro exposure” value [1] was “significantly diminished colony formation”, the “Suppression of leukemia progenitor cell colony formation” value ([1]; MDS/AML cell lines and patient-derived samples, 250 nM or 1 μM, complete in all samples except THP1) was “complete suppression of leukemia progenitor cell colony formation” and the IC50 [2, 24] was 9.3 nM. The “Suppression of NF-kB signaling through the IL-1 receptor” value ([2]; THP1 NF-kB reporter cells) was “completely suppress”, the “Genes of the IRAK1/4 AML signature suppressed” value [7] was about 65% and the Kd [8] was 0.2 nM. The Kd [9] was 2.2 nM, the PAMPA [10] was 495 10^−6 cm/s and the IC50 ([3]; THP1 NF-kB reporter cells, read-out: IC50 vs. Pam3CSK4 (TLR2-mediated NF-kB activation)) was 6.3 nM and 4.5 nM. The “Suppression of TLR2-mediated activation of NF-kB” value ([3]; at 100 nM) was “completely suppressed”, the IC50 [4, 25] was 0.9 nM and the “Tier 2 Mic t½ (h)” value [20] was 1.7 h. The Median survival [11] was 40 days, the “Leukemic cell engraftment in the PB” value [11] was “significantly reduced” and the “Morphology (Wright-Giemsa staining)” value ([21]; 500 nM, 12 days) was “heterogeneous morphologies and size and increased cytoplasmic to nuclear ratios”. The “Expression of CD38” value ([21]; 12 days of treatment, versus Compound 14 or vehicle) was “greater expression of CD38”, the “Plasma Prot Bind (% free - h)” value [12] was 2.46 % free and the “Erythroid colony formation of healthy donor CD34+ cells” value [22] was “increased erythroid colony formation”. The “Myeloid cell colonies of healthy donor CD34+ cells” value [22] was “only modesty inhibited”, the “Apoptosis (Annexin V staining)” value [23] was “more effective than Compound 14 at mediating apoptosis” and the Solubility [13] was 31 mg/mL (≈ 93 mM). The “Leukemic engraftment and AML development of pre-treated cells” value [14] was “complete loss of leukemic engraftment and AML development”, the “IRAK4:IRAK1 potency ratio” value [6] was 36 and the IC50 [6, 26] was 32 nM. For the same compound, the “Tier 2 Mic t½ (m)” value [15] was 29 min, the “Phosphorylation of IRAK1” value [16] was “inhibited auto-phosphorylation of IRAK1” and the “Mean Free Drug Concentration” value ([17]; PO 100 mg/kg, 0.25 h) was 263 nM. The “Mean Total Drug Concentration” value ([17]; PO 100 mg/kg, 0.25 h) was 3845 nM, the “Mean Free Drug Concentration” value ([17]; PO 100 mg/kg, 0.5 h) was 258 nM and the “Mean Total Drug Concentration” value ([17]; PO 100 mg/kg, 0.5 h) was 3764 nM. The “Mean Free Drug Concentration” value ([17]; PO 100 mg/kg, 1 h) was 207 nM, the “Mean Total Drug Concentration” value ([17]; PO 100 mg/kg, 1 h) was 3018 nM and the “Mean Free Drug Concentration” value ([17]; PO 100 mg/kg, 2 h) was 139 nM. For the same compound, the “Mean Total Drug Concentration” value ([17]; PO 100 mg/kg, 2 h) was 2034 nM, the “Mean Free Drug Concentration” value ([17]; PO 100 mg/kg, 4 h) was 109 nM and the “Mean Total Drug Concentration” value ([17]; PO 100 mg/kg, 4 h) was 1594 nM. For the same compound, the “Mean Free Drug Concentration” value ([17]; PO 100 mg/kg, 8 h) was 50 nM, the “Mean Total Drug Concentration” value ([17]; PO 100 mg/kg, 8 h) was 726 nM and the “Mean Free Drug Concentration” value ([17]; PO 100 mg/kg, 24 h) was 1 nM. The “Mean Total Drug Concentration” value ([17]; PO 100 mg/kg, 24 h) was 9 nM, the “Plasma Prot Bind (% free - ms)” value [18] was 6.85 % free and the “Tier 1 Mic t½ (r)” value [19] was over 30 min. For the same compound, the “Tier 2 Mic t½ (r)” value [19] was 68 min.
